Counter-ions that a name gives are not always drawn.

This is an account of results in patent US7863271B2, “2-aminobenzoxazole carboxamides as 5HT3 modulators” (Albany Molecular Research, Inc., priority 2006, dated 2011).

The target in the assay is T1, 5-HT3 (Homo sapiens, UniProt P46098).
T1 sequence (P46098 24-478): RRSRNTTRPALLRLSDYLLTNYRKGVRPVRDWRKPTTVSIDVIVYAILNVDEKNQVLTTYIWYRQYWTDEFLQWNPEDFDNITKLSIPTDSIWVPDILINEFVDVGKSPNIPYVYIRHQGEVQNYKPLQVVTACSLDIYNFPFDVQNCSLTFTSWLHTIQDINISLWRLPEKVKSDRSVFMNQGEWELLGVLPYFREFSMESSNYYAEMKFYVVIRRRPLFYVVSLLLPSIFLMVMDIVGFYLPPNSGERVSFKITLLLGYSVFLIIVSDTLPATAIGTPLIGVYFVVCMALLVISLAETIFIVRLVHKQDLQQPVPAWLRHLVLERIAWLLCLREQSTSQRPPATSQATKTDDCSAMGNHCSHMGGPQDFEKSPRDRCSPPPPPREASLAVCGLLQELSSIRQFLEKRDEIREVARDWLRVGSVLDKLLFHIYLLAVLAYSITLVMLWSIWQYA
The assay is described as follows: Compound affinity for the human 5-HT3 receptor (Assay B), SPA radioligand binding with [9-methyl-3H]BRL-43694. As to conditions: Assay B (method B unless otherwise annotated); read-out: 5-HT3 Ki. Further details: purchased Perkin Elmer. A digest of the protocol:
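Ten competitor concentrations in duplicate; specific binding (total minus nonspecific) fitted for IC50, converted to Ki by Cheng-Prusoff.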

As a reminder, the Ki is the dissociation constant of the complex between target and ligand, obtained from inhibition or displacement. Take `CN1[C@@H]2CCC[C@H]1C[C@@H](NC(=O)c1cccc3oc(N4CCn5ccnc5C4)nc13)C2` [Example 79, Endo-N-(9-Methyl-9-azabicyclo[3.3.1]nonan-3-yl)-2-(5,6-dihydroimidazo[1,2-a]pyrazin-7(8H)-yl)benzoxazole-4-carboxamide Hydrochloride]: the Ki came to 29.3 nM. `CN1[C@@H]2CCC[C@H]1C[C@@H](NC(=O)c1cccc3oc(Nc4ccncc4)nc13)C2` [Example 27, Endo-N-(9-Methyl-9-azabicyclo[3.3.1]non-3-yl)-2-(pyridine-4-ylamino)benzoxazole-4-carboxamide Dihydrochloride]: the Ki worked out at 4.5 nM.

With `CN1CCN(c2nc3c(C(=O)N[C@H]4C[C@H]5CCC[C@@H](C4)N5C)cccc3o2)C(c2ccccc2)C1` (mixture of isomers) [Example 23, Endo-N-(9-Methyl-9-azabicyclo[3.3.1]non-3-yl)-2-(4-methyl-2-phenylpiperazin-1-yl)benzoxazole-4-carboxamide Dihydrochloride], the Ki amounted to 25.2 nM.

Regarding `C[C@H]1CNC[C@H](C)N1c1nc2c(C(=O)NC3CN4CCC3CC4)ccc(F)c2o1` (stereo partly drawn) [Example 118, (S)—N-(Quinulidin-8-yl)-2-((2S,6S)-2,6-dimethylpiperazine-1-yl)-7-fluorobenzoxazole-4-carboxamide hydrochloride], the Ki was found to be 26.8 nM.

For `CC(C)C[C@H]1CN(c2nc3c(C(=O)NC4CC5CCCC(C4)N5C)cccc3o2)CCN1` (stereo partly drawn) [Example 74, Endo-N-(9-Methyl-9-azabicyclo[3.3.1]nonan-3-yl)-2-((3S)-3-isobutylpiperazine-1-yl)benzoxazole-4-carboxamide Hydrochloride], the inhibition constant Ki is 72.9 nM.

As for `O=C(N[C@@H]1CN2CCC1CC2)c1cccc2oc(Nc3ccccc3)nc12` [Example 6, (S)—N-(quinuclidine-8-yl)-2-(phenylamino) benzoxazole-4-carboxamide Hydrochloride], the Ki amounted to 8.1 nM. As for `CCNc1nc2c(C(=O)NC3CN4CCC3CC4)cccc2o1` [Example 104, (S)—N-(Quinulidin-8-yl)-2-ethylaminobenzoxazole-4-carboxamide Hydrochloride], the Ki stood at 13.5 nM. Then `CC(C)C[C@H]1CNCCN1c1nc2c(C(=O)NC3CC4CCCC(C3)N4C)cccc2o1` (stereo partly drawn) [Example 77, Endo-N-(9-Methyl-9-azabicyclo[3.3.1]nonan-3-yl)-2-((S)-2-isobutylpiperazine-1-yl)benzoxazole-4-carboxamide Hydrochloride], with 6.4 nM; and `CN1[C@@H]2COC[C@H]1C[C@@H](NC(=O)c1cccc3oc(Nc4ccccc4)nc13)C2` [Example 45, Endo-N-(9-Methyl-3-oxa-9-azabicyclo[3.3.1]nonan-7-yl)-2-(phenylamino)benzoxazole-4-carboxamide Hydrochloride], with 22.6 nM. With `C[C@H]1COC[C@H](C)N1c1nc2c(C(=O)NC3CC4CCC(C3)N4C)cccc2o1` (stereo partly drawn) [Example 101, N-(8-Methyl-8-azabicyclo[3.2.1]octan-3-yl)-2-(3S,5S)-3,5-dimethylmorpholinobenzoxazole-4-carboxamide Hydrochloride], the Ki turned out to be 2.6 nM. In the case of `CC[C@H]1CNCCN1c1nc2c(C(=O)NC3CC4CCCC(C3)N4C)cccc2o1` (stereo partly drawn) [Example 84, Endo-N-(9-Methyl-9-azabicyclo[3.3.1]nonan-3-yl)-2-((S)-2-ethylpiperazine-1-yl)benzoxazole-4-carboxamide Hydrochloride], the Ki amounted to 11.3 nM. For `CC(O)CCNc1nc2c(C(=O)N[C@H]3C[C@H]4CCC[C@@H](C3)N4C)cccc2o1` (stereo partly drawn) [Example 61, Endo-N-(9-methyl-9-azabicyclo[3.3.1]nonan-3-yl)-2-(3-hydroxybutylamino)benzoxazole-4-carboxamide Hydrochloride], the inhibitory constant (Ki) came out at 19.9 nM. Then `CN1[C@@H]2CCC[C@H]1C[C@@H](NC(=O)c1cccc3oc(NC4CNC4)nc13)C2` [Example 16, Endo-N-(9-Methyl-9-azabicyclo[3.3.1]non-3-yl)-2-(azetidin-3-ylamino)benzoxazole-4-carboxamide Dihydrochloride], with 179 nM; and `CN1[C@@H]2CCC[C@H]1C[C@@H](NC(=O)c1cccc3oc(N4CCOCC4)nc13)C2` [Example 9, Endo-N-(9-Methyl-9-azabicyclo[3.3.1]non-3-yl)-2-morpholinobenzoxazole-4-carboxamide Hydrochloride], with 42 nM; and `C[C@H]1COC[C@H](C)N1c1nc2c(C(=O)NC3CC4CCCC(C3)N4)cccc2o1` (stereo partly drawn) [Example 81, Endo-N-(9-Azabicyclo[3.3.1]nonan-3-yl)-2-((3S,5S)-3,5-dimethylmorpholino)benzoxazole-4-carboxamide Hydrochloride], with 16.8 nM. For the molecule `C[C@H]1CN(CC2CC2)C[C@H](C)N1c1nc2c(C(=O)NC3CC4CCCC(C3)N4C)cccc2o1` (stereo partly drawn) [Example 119, Endo-N-(9-methyl-9-azabicyclo[3.3.1]nonan-3-yl)-2-((2S,6S)-4-(cyclopropylmethyl)-2,6-dimethylpiperazin-1-yl)benzoxazole-4-carboxamide Hydrochloride], the inhibitory constant (Ki) was 6.6 nM. `C[C@H]1CNCCN1c1nc2c(C(=O)NC3CC4CCCC(C3)N4C)cc(Cl)cc2o1` (stereo partly drawn) [Example 57, Endo-N-(9-methyl-9-azabicyclo[3.3.1]nonan-3-yl)-6-chloro-2-((S)-2-methylpiperazin-1-yl)benzoxazole-4-carboxamide Hydrochloride]: the Ki was 11.4 nM. On to `C[C@H]1CN(C)C[C@H](C)N1c1nc2c(C(=O)NC3CC4CCCC(C3)N4C)cccc2o1` (stereo partly drawn) [Example 122, Endo-N-(9-methyl-9-azabicyclo[3.3.1]nonan-3-yl)-2-((2S,6S-2,4,6-trimethylpiperazin-1-yl)benzoxazole-4-carboxamide Hydrochloride], for which the Ki amounted to 2.3 nM. On to `CN1[C@@H]2CCC[C@H]1C[C@@H](NC(=O)c1cccc3oc(N4CCCCC4)nc13)C2` [Example 3, Endo-N-(9-Methyl-9-azabicyclo[3.3.1]non-3-yl)-2-(piperidin-1-yl)benzoxazole-4-carboxamide Hydrochloride], for which the Ki stood at 10.4 nM. As to `COCCNc1nc2c(C(=O)N[C@H]3C[C@H]4CCC[C@@H](C3)N4C)cccc2o1` [Example 38, Endo-N-(9-Methyl-9-azabicyclo[3.3.1]nonan-3-yl)-2-(2-methoxyethylamino)benzoxazole-4-carboxamide Hydrochloride], the Ki turned out to be 7.5 nM.

As for `CN1[C@@H]2CCC[C@H]1C[C@@H](NC(=O)c1cccc3oc(Nc4ccccc4)nc13)C2` [Example 5, Endo-N-(9-Methyl-9-azabicyclo[3.3.1]non-3-yl)-2-(phenylamino)benzoxazole-4-carboxamide Hydrochloride], the Ki was 6.25 nM.

With `CC(C)C[C@H]1CN(Cc2ccccc2)CCN1c1nc2c(C(=O)NC3CC4CCCC(C3)N4C)cccc2o1` (stereo partly drawn) [Example 71, Endo-N-(9-Methyl-9-azabicyclo[3.3.1]nonan-3-yl)-2-((2S)-2-isobutyl-4-benzylpiperazin-1-yl)benzoxazole-4-carboxamide Hydrochloride], the Ki came to 48.6 nM.

Turning to `CC(C)[C@H]1CN(c2nc3c(C(=O)NC4CC5CCCC(C4)N5C)cccc3o2)CCN1` (stereo partly shown) [Example 78, Hydrochloride], the Ki was determined as 25.8 nM. Consider `C[C@H]1CN(C(=O)C(C)(C)C)C[C@H](C)N1c1nc2c(C(=O)NC3CC4CCCC(C3)N4C)cccc2o1` (stereo partly drawn) [Example 130, Endo-N-(9-methyl-9-azabicyclo[3.3.1]nonan-3-yl)-2-((2S,6S)-2,6-dimethyl-4-pivaloylpiperazin-1-yl)benzoxazole-4-carboxamide Hydrochloride], for which the Ki is 2.8 nM. As for `CN1C2CCCC1CC(NC(=O)c1cccc3oc(N4CCOC[C@@H]4CO)nc13)C2` (stereo partly drawn) [Example 94, Endo-N-(9-Methyl-9-azabicyclo[3.3.1]nonan-3-yl)-2-((S)-3-(hydroxymethyl)morpholino)benzoxazole-4-carboxamide Hydrochloride], the Ki was determined as 27.5 nM. `CC1CNCCN1c1nc2c(C(=O)NC3CN4CCC3CC4)cccc2o1` [Example 26, (S)—N-(quinuclidine-8-yl)-2-(2-methylpiperazin-1-yl)benzoxazole-4-carboxamide Dihydrochloride]: the Ki worked out at 241 nM. For the molecule `Cc1cc(C(=O)N[C@H]2C[C@H]3CCC[C@@H](C2)N3C)c2nc(N)oc2c1` [Example 129, Endo-2-amino-6-methyl-N-(9-Methyl-9-azabicyclo[3.3.1]nonan-3-yl)benzoxazole-4-carboxamide Hydrochloride], the Ki is 10.7 nM. Turning to `CN(C)C(=O)CNc1nc2c(C(=O)N[C@H]3C[C@H]4CCC[C@@H](C3)N4C)cccc2o1` [Example 47, Endo-N-(9-Methyl-9-azabicyclo[3.3.1]nonan-3-yl)-2-(2-(dimethylamino)-2-oxoethylamino)benzoxazole-4-carboxamide Dihydrochloride], the Ki turned out to be 137 nM.
